The values that follow come from patent publication US8431597B2, “Benzimidazole derivatives” (Pfizer Inc., priority 2007, dated 2013).

Counter-ions that a name gives are not always drawn.

T1 sequence (P56726 33-793): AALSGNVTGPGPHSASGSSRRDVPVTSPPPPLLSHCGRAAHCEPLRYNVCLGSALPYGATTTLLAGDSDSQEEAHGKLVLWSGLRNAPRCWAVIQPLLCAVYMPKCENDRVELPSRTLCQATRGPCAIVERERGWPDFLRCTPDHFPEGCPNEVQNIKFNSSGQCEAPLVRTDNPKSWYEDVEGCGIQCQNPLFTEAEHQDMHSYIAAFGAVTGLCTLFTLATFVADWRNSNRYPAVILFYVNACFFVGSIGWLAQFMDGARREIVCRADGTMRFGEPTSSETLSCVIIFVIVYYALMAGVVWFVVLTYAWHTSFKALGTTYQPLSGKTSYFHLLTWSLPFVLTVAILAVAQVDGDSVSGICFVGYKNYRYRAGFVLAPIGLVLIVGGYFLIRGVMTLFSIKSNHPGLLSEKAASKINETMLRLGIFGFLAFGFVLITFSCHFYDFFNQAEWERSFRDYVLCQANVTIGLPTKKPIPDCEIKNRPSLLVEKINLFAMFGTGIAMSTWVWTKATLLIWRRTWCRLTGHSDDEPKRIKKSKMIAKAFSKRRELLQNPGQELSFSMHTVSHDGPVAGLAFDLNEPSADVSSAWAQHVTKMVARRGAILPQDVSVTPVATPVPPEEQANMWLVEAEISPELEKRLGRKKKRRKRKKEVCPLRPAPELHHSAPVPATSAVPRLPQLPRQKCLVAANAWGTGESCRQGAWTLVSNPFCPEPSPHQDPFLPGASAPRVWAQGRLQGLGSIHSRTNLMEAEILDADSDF

This assay addresses T1, Smoothened (SMO) (Mus musculus, UniProt P56726).
T1 construct: C3H10T1/2 cells (ATCC #CCL-226) were split and seeded; endogenous in cells; host or cells: C3H10T1/2 (ATCC #CCL-226)
Description: Smoothened (SMO)/Sonic Hedgehog (SHh) Transient Transcriptional Activation Assay (Gli-luciferase reporter in C3H10T1/2 cells). Type of assay: cell-based, murine. To be noted: C3H 10T1/2, 2 μM compound; transfected C3H10T1/2 cells, recombinant human SHh 250 ng/mL, 20 hours, luciferase readout; read-out: SMO CELL % INHIBITION @ 2 μM. Summed up: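 C3H10T1/2 cells transiently transfected with a murine Gli-responsive firefly luciferase reporter plus pEGFP were serum-starved 20 h in 0.5% calf serum. Compound (2 μM to 2 nM final) was added with recombinant human SHh at 250 ng/mL final for 20 h at 37 °C. Read-out was Dual-Glo luminescence.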
Take `CN1CC[C@@H](NC(=O)Nc2ccc(C#N)cc2)C[C@@H]1c1nc2cc(F)ccc2[nH]1` [Example 51, 1-(4-cyanophenyl)-3-[(2R,4R)-2-(5-fluoro-1H-benzimidazol-2-yl)-1-methylpiperidin-4-yl]urea hydrochloride]: the inhibition at 2 µM amounted to 105%.
Next, `CN1CC[C@@H](NC(=O)Nc2ccc(C#N)cn2)C[C@@H]1c1nc2ccccc2[nH]1` [Example 43, 1-[(2R,4R)-2-(1H-benzimidazol-2-yl)-1-methylpiperidin-4-yl]-3-(5-cyanopyridin-2-yl)urea hydrochloride]: 106%; `COc1ccc2nc([C@@H]3C[C@H](NC(=O)Nc4ccc(Cl)c(C(F)(F)F)c4)CN3)[nH]c2c1` [Example 20, 1-[4-chloro-3-(trifluoromethyl)phenyl]-3-[(3S,5S)-5-(6-methoxy-1H-benzimidazol-2-yl)pyrrolidin-3-yl]urea]: 63%.
Consider `CN1CC[C@@H](NC(=O)c2cc3ccccc3n2C)C[C@@H]1c1nc2ccccc2[nH]1` [Example 113, N-[(2R,4R)-2-(1H-benzimidazol-2-yl)-1-methylpiperidin-4-yl]-1-methyl-1H-indole-2-carboxamide trifluoroacetate], for which the inhibition at 2 µM worked out at 76.1%.
As to `CN1CC[C@@H](NC(=O)Cc2cc3ccccc3o2)C[C@@H]1c1nc2ccccc2[nH]1` [Example 104, N-[(2R,4R)-2-(1H-benzimidazol-2-yl)-1-methylpiperidin-4-yl]-2-(1-benzofuran-2-yl)acetamide trifluoroacetate], the inhibition at 2 µM is 99.5%.
On to `Cc1cc2nc([C@H]3C[C@H](NC(=O)Nc4ccc(C#N)cc4)CCN3C)[nH]c2cc1C` [Example 52, 1-(4-cyanophenyl)-3-[(2R,4R)-2-(5,6-dimethyl-1H-benzimidazol-2-yl)-1-methylpiperidin-4-yl]urea hydrochloride], for which the inhibition at 2 µM is 105%.
To `CN1CC[C@@H](NC(=O)Cc2ccccc2F)C[C@@H]1c1nc2ccccc2[nH]1` [Example 120, N-[(2R,4R)-2-(1H-benzimidazol-2-yl)-1-methylpiperidin-4-yl]-2-(2-fluorophenyl)acetamide trifluoroacetate] belongs 63.7%.
To `Cc1cc(C(=O)N[C@@H]2CCN(C)[C@@H](c3nc4ccccc4[nH]3)C2)n(C(C)(C)C)n1` [Example 124, N-[(2R,4R)-2-(1H-benzimidazol-2-yl)-1-methylpiperidin-4-yl]-1-tert-butyl-3-methyl-1H-pyrazole-5-carboxamide trifluoroacetate] belongs 50.6%.
With `CN1CC[C@@H](NC(=O)Nc2ccc(C(F)(F)F)cc2)C[C@@H]1c1nc2ccccc2[nH]1` [Example 18, 1-[(2R,4R)-2-(1H-benzimidazol-2-yl)-1-methylpiperidin-4-yl]-3-[4-(trifluoromethyl)phenyl]urea hydrochloride], the inhibition at 2 µM amounted to 110%.
Next, `Cc1ccc2[nH]c([C@H]3C[C@H](NC(=O)Nc4ccc(C)nc4)CCN3C)nc2c1` [Example 130, 1-[(2R,4R)-1-methyl-2-(5-methyl-1H-benzimidazol-2-yl)piperidin-4-yl]-3-(6-methylpyridin-3-yl)urea hydrochloride]: 106%.
To `CN1CC[C@@H](NC(=O)N2CCOCC2)C[C@@H]1c1nc2ccccc2[nH]1` [Example 95, N-[(2R,4R)-2-(1H-benzimidazol-2-yl)-1-methylpiperidin-4-yl]morpholine-4-carboxamide hydrochloride] belongs 78.7%; to `N#Cc1ccc(NC(=O)N[C@@H]2CCN(Cc3ccccc3)[C@@H](c3nc4ccccc4[nH]3)C2)cc1` [Example 61, 1-[(2R,4R)-2-(1H-benzimidazol-2-yl)-1-benzylpiperidin-4-yl]-3-(4-cyanophenyl)urea], 99.5%; to `CN1CC[C@@H](NC(=O)c2ccc3c(c2Cl)OCCO3)C[C@@H]1c1nc2ccccc2[nH]1` [Example 144, N-[(2R,4R)-2-(1H-benzimidazol-2-yl)-1-methylpiperidin-4-yl]-5-chloro-2,3-dihydro-1,4-benzodioxine-6-carboxamide triflouroacetate], 108%.
In the case of `Cc1ccc(NC(=O)N[C@@H]2CCN(C)[C@@H](c3nc4ccccc4[nH]3)C2)c(C)n1` [Example 48, 1-[(2R,4R)-2-(1H-benzimidazol-2-yl)-1-methylpiperidin-4-yl]-3-(2,6-dimethylpyridin-3-yl)urea hydrochloride], the inhibition at 2 µM was 105%.
Regarding `Cc1ccc(NC(=O)N[C@@H]2CCN(C3CCC3)[C@@H](c3nc4ccccc4[nH]3)C2)cn1` [Example 150, 1-[(2R,4R)-2-(1H-benzimidazol-2-yl)-1-cyclobutyl-piperidin-4-yl]-3-(6-methylpyridin-3-yl)urea triflouroacetate], the inhibition at 2 µM amounted to 106%.
Take `CN1CC[C@@H](NC(=O)Nc2ccc(Cl)c(C(F)(F)F)c2)C[C@@H]1c1nc2ccccc2[nH]1` [Example 26, 1-[(2R,4R)-2-(1H-benzimidazol-2-yl)-1-methylpiperidin-4-yl]-3-[4-chloro-3-(trifluoromethyl)phenyl]urea hydrochloride]: the inhibition at 2 µM stood at 109%.
For the compound `COc1ccc2[nH]c([C@H]3C[C@H](NC(=O)c4ccc5c(c4F)OCCO5)CCN3C)nc2c1` [Example 143, 5-fluoro-N-[(2R,4R)-2-(5-methoxy-1H-benzimidazol-2-yl)-1-methylpiperidin-4-yl]-2,3-dihydro-1,4-benzodioxine-6-carboxamide triflouroacetate], the inhibition at 2 µM stood at 83.5%.
As to `CN1CC[C@@H](NC(=O)Nc2ccccc2)C[C@@H]1c1nc2ccccc2[nH]1` [Example 75, 1-[(2R,4R)-2-(1H-benzimidazol-2-yl)-1-methylpiperidin-4-yl]-3-phenylurea hydrochloride], the inhibition at 2 µM is 100%.
In the case of `O=C(N[C@H]1C[C@@H](c2nc3ccccc3[nH]2)N(C(=O)OCc2ccccc2)C1)c1ccc2c(c1)OCCO2` [Example 10, benzyl (2S,4S)-2-(1H-benzimidazol-2-yl)-4-[(2,3-dihydro-1,4-benzodioxin-6-ylcarbonyl)amino]pyrrolidine-1-carboxylate], the inhibition at 2 µM was 106%.
Next, `CN(C)c1ccc(NC(=O)N[C@@H]2CCN(C)[C@@H](c3nc4ccccc4[nH]3)C2)cc1` [Example 56, 1-[(2R,4R)-2-(1H-benzimidazol-2-yl)-1-methylpiperidin-4-yl]-3-[4-(dimethylamino)phenyl]urea hydrochloride]: 104%.
Next, `Cc1ccc(NC(=O)N[C@@H]2CCN(C)[C@@H](c3nc4cc(C)c(C)cc4[nH]3)C2)cn1` [Example 131, 1-[(2R(4R)-2-(5,6-dimethyl-1H-benzimidazol-2-yl)-1-methylpiperidin-4-yl]-3-(6-methylpyridin-3-yl)urea hydrochloride]: 105%; `N#Cc1ccc(NC(=O)N[C@@H]2CCN(CCc3ccccc3)[C@@H](c3nc4ccccc4[nH]3)C2)cc1` [Example 98, 1-[(2R,4R)-2-(1H-benzimidazol-2-yl)-1-(2-phenyl-ethyl)piperidin-4-yl)-3-(4-cyanophenyl)urea]: 74.5%.
To `CN1CC[C@@H](NC(=O)c2ccc(C(=O)C(F)(F)F)cc2)C[C@@H]1c1nc2ccccc2[nH]1` [Example 68, N-[(2R,4R)-2-(1H-benzimidazol-2-yl)-1-methylpiperidin-4-yl]-4-(trifluoroacetyl)benzamide] belongs 102%; to `O=C(N[C@@H]1CCN(C2CCC2)[C@@H](c2nc3ccccc3[nH]2)C1)c1ccc2c(c1)OCCO2` [Example 82, N-[(2R,4R)-2-(1H-benzimidazol-2-yl)-1-cyclobutyl-piperidin-4-yl]-2,3-dihydro-1,4-benzodioxine-6-carboxamide hydrochloride], 96.8%; to `CN1CC[C@@H](NC(=O)Nc2ccc(C#N)cc2)C[C@@H]1c1nc2cc(C#N)ccc2[nH]1` [Example 19, 1-[(2R,4R)-2-(5-cyano-1H-benzimidazol-2-yl)-1-methylpiperidin-4-yl]-3-(4-cyanophenyl)urea hydrochloride], 109%.
For `CN1CC[C@@H](NC(=O)NC2CCCC2)C[C@@H]1c1nc2ccccc2[nH]1` [Example 85, 1-[(2R,4R)-2-(1H-benzimidazol-2-yl)-1-methylpiperidin-4-yl]-3-cyclopentylurea hydrochloride], the inhibition at 2 µM stood at 93.1%.
